Reference: PubChem BioAssay (NCI)
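These data come from cells grown in 96-well plates and exposed to compound for 48 hours at five concentrations. At the GI50, growth is halved. TGI: total growth inhibition.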

Legend:
Assay in all cases: NCI-60 cell line screen, 48 h
UACC-257 melanoma = tested on: UACC-257 melanoma
MCF7 breast = tested on: MCF7 breast
SW-620 colon = tested on: SW-620 colon
ACHN renal = tested on: ACHN renal
MDA-MB-231 breast = tested on: MDA-MB-231 breast
CCRF-CEM leukemia = tested on: CCRF-CEM leukemia
HS 578T breast = tested on: HS 578T breast
SK-MEL-5 melanoma = tested on: SK-MEL-5 melanoma
MDA-MB-468 breast = tested on: MDA-MB-468 breast
HCC-2998 colon = tested on: HCC-2998 colon
OVCAR-5 ovarian = tested on: OVCAR-5 ovarian
SR leukemia = tested on: SR leukemia
SK-OV-3 ovarian = tested on: SK-OV-3 ovarian
MALME-3M melanoma = tested on: MALME-3M melanoma
NCI-H522 lung = tested on: NCI-H522 lung
SK-MEL-2 melanoma = tested on: SK-MEL-2 melanoma
NCI-H460 lung = tested on: NCI-H460 lung
OVCAR-4 ovarian = tested on: OVCAR-4 ovarian
NCI/ADR-RES ovarian = tested on: NCI/ADR-RES ovarian
COLO 205 colon = tested on: COLO 205 colon
NCI-H23 lung = tested on: NCI-H23 lung
HL-60(TB) leukemia = tested on: HL-60(TB) leukemia
SF-268 CNS = tested on: SF-268 CNS
EKVX NSCLC = tested on: EKVX NSCLC
HOP-62 NSCLC = tested on: HOP-62 NSCLC
SF-295 CNS = tested on: SF-295 CNS
DU-145 prostate = tested on: DU-145 prostate
OVCAR-8 ovarian = tested on: OVCAR-8 ovarian
CAKI-1 renal = tested on: CAKI-1 renal
BT-549 breast = tested on: BT-549 breast
RXF 393 renal = tested on: RXF 393 renal
SN12C renal = tested on: SN12C renal
TK-10 renal = tested on: TK-10 renal
A549 NSCLC = tested on: A549 NSCLC
U251 CNS = tested on: U251 CNS
M14 melanoma = tested on: M14 melanoma
UACC-62 melanoma = tested on: UACC-62 melanoma
LOX IMVI melanoma = tested on: LOX IMVI melanoma
HCT-15 colon = tested on: HCT-15 colon
UO-31 renal = tested on: UO-31 renal
HOP-92 NSCLC = tested on: HOP-92 NSCLC
SF-539 CNS = tested on: SF-539 CNS
786-0 renal = tested on: 786-0 renal
T-47D breast = tested on: T-47D breast
A498 renal = tested on: A498 renal
PC-3 prostate = tested on: PC-3 prostate
SNB-75 CNS = tested on: SNB-75 CNS
HT29 colon = tested on: HT29 colon
SNB-19 CNS = tested on: SNB-19 CNS
OVCAR-3 ovarian = tested on: OVCAR-3 ovarian
MOLT-4 leukemia = tested on: MOLT-4 leukemia
MDA-MB-435 = tested on: MDA-MB-435
IGROV1 ovarian = tested on: IGROV1 ovarian
RPMI-8226 leukemia = tested on: RPMI-8226 leukemia
KM12 colon = tested on: KM12 colon
HCT-116 colon = tested on: HCT-116 colon
K-562 leukemia = tested on: K-562 leukemia
NCI-H226 lung = tested on: NCI-H226 lung
SK-MEL-28 melanoma = tested on: SK-MEL-28 melanoma

CC12CCC3(CCC(=O)NCCCNc4ccnc5cc(Cl)ccc45)[C@@](C)(OO[C@]3(C)O1)O2
GI50 (UACC-257 melanoma): 8.99 µM | TGI (UACC-257 melanoma): > 25.5 µM | GI50 (MCF7 breast): 1680 nM | TGI (MCF7 breast): > 25.5 µM | GI50 (SW-620 colon): 3.62 µM | TGI (SW-620 colon): > 25.5 µM | GI50 (ACHN renal): 1160 nM | TGI (ACHN renal): 6.73 µM | GI50 (MDA-MB-231 breast): 1400 nM | TGI (MDA-MB-231 breast): 9.92 µM | GI50 (CCRF-CEM leukemia): 3.85 µM | TGI (CCRF-CEM leukemia): 11 µM | GI50 (HS 578T breast): 3 µM | TGI (HS 578T breast): 14.1 µM | GI50 (SK-MEL-5 melanoma): 4.36 µM | TGI (SK-MEL-5 melanoma): 17.2 µM | GI50 (MDA-MB-468 breast): 4.05 µM | TGI (MDA-MB-468 breast): 9.17 µM | GI50 (HCC-2998 colon): 8.01 µM | TGI (HCC-2998 colon): > 25.5 µM | GI50 (OVCAR-5 ovarian): 4.2 µM | TGI (OVCAR-5 ovarian): 16 µM | GI50 (SR leukemia): 3.66 µM | TGI (SR leukemia): 16.3 µM | GI50 (SK-OV-3 ovarian): 5.46 µM | TGI (SK-OV-3 ovarian): 16.1 µM | GI50 (MALME-3M melanoma): 4.73 µM | TGI (MALME-3M melanoma): 19.6 µM | GI50 (NCI-H522 lung): 3.02 µM | TGI (NCI-H522 lung): 6.79 µM | GI50 (SK-MEL-2 melanoma): 8.21 µM | TGI (SK-MEL-2 melanoma): > 25.5 µM | GI50 (NCI-H460 lung): 2490 nM | TGI (NCI-H460 lung): 11.4 µM | GI50 (OVCAR-4 ovarian): 4.89 µM | TGI (OVCAR-4 ovarian): > 25.5 µM | GI50 (NCI/ADR-RES ovarian): 5.84 µM | TGI (NCI/ADR-RES ovarian): 19.4 µM | GI50 (COLO 205 colon): 4.99 µM | TGI (COLO 205 colon): > 25.5 µM | GI50 (NCI-H23 lung): 3.77 µM | TGI (NCI-H23 lung): 11.8 µM | GI50 (HL-60(TB) leukemia): 4.94 µM | TGI (HL-60(TB) leukemia): 11.7 µM | GI50 (SF-268 CNS): 2090 nM | TGI (SF-268 CNS): 8.55 µM | GI50 (EKVX NSCLC): 1990 nM | TGI (EKVX NSCLC): 19.4 µM | GI50 (HOP-62 NSCLC): 1410 nM | TGI (HOP-62 NSCLC): 6.48 µM | GI50 (SF-295 CNS): 4.5 µM | TGI (SF-295 CNS): 15 µM | GI50 (DU-145 prostate): 3.42 µM | TGI (DU-145 prostate): 11.9 µM | GI50 (OVCAR-8 ovarian): 4.92 µM | TGI (OVCAR-8 ovarian): 12.7 µM | GI50 (CAKI-1 renal): 951 nM | TGI (CAKI-1 renal): 4.75 µM | GI50 (BT-549 breast): 5.28 µM | TGI (BT-549 breast): 15.5 µM | GI50 (RXF 393 renal): 646 nM | TGI (RXF 393 renal): 2740 nM | GI50 (SN12C renal): 2140 nM | TGI (SN12C renal): 12.2 µM | GI50 (TK-10 renal): 1230 nM | TGI (TK-10 renal): 11.3 µM | GI50 (A549 NSCLC): 2990 nM | TGI (A549 NSCLC): > 25.5 µM | GI50 (U251 CNS): 4.45 µM | TGI (U251 CNS): 11.6 µM | GI50 (M14 melanoma): 4.36 µM | TGI (M14 melanoma): 17.4 µM | GI50 (UACC-62 melanoma): 5.58 µM | TGI (UACC-62 melanoma): > 25.5 µM | GI50 (LOX IMVI melanoma): 1340 nM | TGI (LOX IMVI melanoma): 4.71 µM | GI50 (HCT-15 colon): 7.9 µM | TGI (HCT-15 colon): > 25.5 µM | GI50 (UO-31 renal): 1430 nM | TGI (UO-31 renal): 6.78 µM | GI50 (HOP-92 NSCLC): 1470 nM | TGI (HOP-92 NSCLC): 12 µM | GI50 (SF-539 CNS): 3.38 µM | TGI (SF-539 CNS): 7.38 µM | GI50 (786-0 renal): 1790 nM | TGI (786-0 renal): 8.62 µM | GI50 (T-47D breast): 5.99 µM | TGI (T-47D breast): > 25.5 µM | GI50 (A498 renal): 3.86 µM | TGI (A498 renal): 22.7 µM | GI50 (PC-3 prostate): 6.72 µM | TGI (PC-3 prostate): > 25.5 µM | GI50 (SNB-75 CNS): 618 nM | TGI (SNB-75 CNS): 3.77 µM | GI50 (HT29 colon): 6.19 µM | TGI (HT29 colon): 23.3 µM | GI50 (SNB-19 CNS): 7.12 µM | TGI (SNB-19 CNS): > 25.5 µM | GI50 (OVCAR-3 ovarian): 3.61 µM | TGI (OVCAR-3 ovarian): 10.8 µM | GI50 (MOLT-4 leukemia): 4.68 µM | TGI (MOLT-4 leukemia): 14.3 µM | GI50 (MDA-MB-435): 4.89 µM | TGI (MDA-MB-435): > 25.5 µM | GI50 (IGROV1 ovarian): 2800 nM | TGI (IGROV1 ovarian): 8.22 µM | GI50 (RPMI-8226 leukemia): 5.86 µM | TGI (RPMI-8226 leukemia): > 25.5 µM | GI50 (KM12 colon): 4.5 µM | TGI (KM12 colon): 24.2 µM | GI50 (HCT-116 colon): 3.71 µM | TGI (HCT-116 colon): 13.3 µM | GI50 (K-562 leukemia): 5.55 µM | TGI (K-562 leukemia): > 25.5 µM | GI50 (NCI-H226 lung): 1720 nM | TGI (NCI-H226 lung): 15 µM | GI50 (SK-MEL-28 melanoma): 8.78 µM | TGI (SK-MEL-28 melanoma): > 25.5 µM
